This is an account of results in a melting point compilation (Tetko et al.; mined from patent text by program, amines drawn as free bases though some values may be those of a salt).

A word on the melting point: it is the temperature of the solid-liquid transition.

Bounds are passed on as bounds.

`O=C(O)C1CSC(Cc2ccccc2)N1` (mixture of isomers) came in with a melting point of 200 °C.
Compound `NC(=O)c1cccc(C(N)=O)c1[N+](=O)[O-]` came in with a melting point of 283 to 285 °C.
The result for `CNc1cc(F)ccc1C(=O)CS(=O)(=O)N(C)C` reads 120 to 124 °C.
For `CCN(CC)CCCCC1CCN(CCNC(=O)N2c3cc(Cl)ccc3C(=O)Nc3cccnc32)CC1` the value was 157 °C.
With `Cc1cc(CSCCC(=C(N)NCC(O)c2ccccc2)[N+](=O)[O-])sc1CN(C)C` (centres undefined), the melting point lay within 114 to 115 °C.
Compound `COc1cccc([C@H]2O[C@H](Cc3nc(=O)o[nH]3)C(=O)N(CC(C)(C)C)c3ccc(Cl)cc32)c1OC` had a melting point of 130 to 133 °C.
In the case of `CN1CCC(=O)C(C2c3ccccc3CCc3ccccc32)C1` (centres undefined), the melting point was in the range of 146 to 147 °C.
For the compound `COc1ccc(C(=O)N2CCCC2=O)cc1O`, the melting point was in the range of 123 to 125 °C.
The result for `Oc1ccccc1-c1ccc2nonc2c1` reads 166 to 169 °C.
The result for `COC(=O)c1cc(C(O)CN(C)C)ccc1OCc1ccccc1` (centres undefined) reads 79 to 81 °C.
The result for `CCOC(=O)CCc1oc2cccc(O)c2c1C` reads 61 to 63 °C; that for `Cc1cc(O)c2c3c(oc(=O)c2c1)C(=O)c1c(O)cccc1C3=O`, 236 to 238 °C.
The compound `O=C(O)c1ccccc1CNC(=O)C1Cc2ccccc2N1S(=O)(=O)c1ccc(-c2cccc(C(F)(F)F)c2)cc1` (centres undefined) displayed a melting point of 118 °C.
The compound `Cc1ccnc(NC(=O)c2nc3ccccc3[nH]2)c1` showed a melting point of 262 °C.
On to `CN(C)c1c(C(N)=O)cnc2c(NC(=O)c3c(Cl)cccc3Cl)cccc12`, for which the melting point was 222 to 223 °C.
For `CC(C)C(NC(=O)OCc1ccccc1)C(=O)Nc1nncs1` (racemic) the value was 162 to 164 °C; for `O=C(O)CCN(C(=O)Cl)c1cccc(Cl)c1`, 106 °C.
`CCC(CC)N(Cc1ccc(C(=O)OC)cc1)S(=O)(=O)c1ccc(Cl)cc1` displayed a melting point of 95 to 97 °C.
For `Cn1c(C#N)ccc1-c1ccc2c(c1)C1(CCCCC1)C(=S)N2` the value was 269 to 272 °C; for `CCn1nc2c(N)nc3ncccc3c2c1CC(C)(C)O`, 283 to 286 °C; for `Cc1c(CC(C)C)sc2nc(C(Cl)(Cl)Cl)[nH]c(=O)c12`, 192 to 194 °C.
For `C#CCn1c(=O)sc2cc(F)c(-n3c(=O)cc(C)[nH]c3=O)cc21` the value was over 250 °C; for `Cn1c(Cn2ccnc2)nc2ccccc21`, 151 to 152 °C.
`CC(C)(C)S(=O)(=O)NC(=O)c1cccc([N+](=O)[O-])c1` gave a melting point of 220 °C.
The result for `CC(C)c1nn(-c2ccc(C(F)(F)F)cc2)cc1COc1cccc(CC(=O)O)c1` reads 92 to 93 °C.
On to `CC(C)c1cccc(C(C)C)c1NC(=O)CN1CCN(CCSc2nc3cccc(CO)c3o2)CC1`, for which the melting point lay in the range of 138 to 139 °C.
In turn, `CC(C)Nc1nc(N)c(C(=O)NC(N)=S)nc1Cl` gave a melting point of 195 °C.
`COc1ccc(-c2cc(=O)n(Cc3ccccc3)nc2-c2ccc(OC)cc2)cc1` had a melting point of 145 to 146 °C.
`COCOc1ccc(-n2c(SCc3ccc(Br)cc3)nc3ccc(Cl)cc32)cc1` displayed a melting point of 123 to 124 °C.
Compound `Cc1ncnc(N)c1C=O` displayed a melting point of 158 to 160 °C.
For the compound `CCOC(=O)C(=CN(C)c1cnsn1)C(=O)c1cc(F)c(Cl)nc1Cl`, the melting point fell in the range of 108 to 110 °C.
The result for `Nc1c(C(=O)c2ccccc2)cnc2[nH]ncc12` reads 282 to 283 °C.
For `CCCN1CCCC(c2cccc(O)c2)C1=O` (centres undefined) the value was 61 to 63 °C.
The compound `COC(=O)c1cccc(-c2cc(CCN3CCCC3=O)c3cc(OC)ccc3c2)c1` displayed a melting point of 110 to 112 °C.
For `O=Cc1c[nH]c2c1ccc1c3cc(-c4ccc(OC(F)(F)F)cc4)ccc3[nH]c12` the value was over 250 °C; for `COc1cc(SC#N)cc(C#N)c1N`, 121 to 122 °C; for `O=S(=O)(c1ccc(N2CCNCC2)cc1)n1ccc2cc(F)ccc21`, 77 to 78 °C.
The result for `O=C1N(Cc2nsc(Cl)n2)c2cccc(Cl)c2C12COc1cc3c(cc12)OCO3` (centres undefined) reads 174 to 176 °C; that for `Brc1ccc(Nc2ncc(-c3ccccc3)s2)nc1`, over 220 °C; that for `COc1ccc(C2(C#Cc3ccncc3)CCC(=O)CC2)cc1OC1CCCC1`, 88 to 89 °C.
On to `NS(=O)(=O)c1ccc(-n2nc(C(F)(F)F)cc2OS(=O)(=O)C(F)(F)F)cc1`, for which the melting point lay in the range of 114 to 115 °C.
The compound `CCOC(=O)c1c(-c2cccc(Cl)c2)c2cc(C(c3nc(-c4ccccc4)cs3)n3ccnc3-c3ccccc3)ccc2[nH]c1=O` (centres undefined) displayed a melting point of 149 °C.
In turn, `C#CCOC(=O)C1=C(C)NC(C)=C(C(=O)OC)C1c1ccccc1C(F)(F)F` (centres undefined) returned a melting point of 115 °C.
In the case of `COc1ccc(-c2nn(CC3CC3)c(=O)cc2-c2ccc(OC)c(F)c2)cc1`, the melting point lay within 135 to 136 °C.
The result for `CC(C)CNc1cc[nH]c(=S)c1C#N` reads 117 to 119 °C; that for `CCCCNC(=O)N(C(=O)NCCCC)c1c(OC(=O)N(CC)CC)nc(C)c2cc(OC)c(OC)cc12`, 138 to 140 °C.
The compound `COC(=O)CCC(=O)Nc1cccc(OCc2cc3ccccc3o2)c1` yielded a melting point of 112 to 113 °C.
The result for `CC=CCn1c(C)c(CC)c2cnnc(OCc3ccc(F)cc3)c21` reads 78 to 83 °C.
In turn, `O=C(O)C(O)=CC(=O)c1cn(Cc2ccccc2)cc(Cc2ccccc2)c1=O` returned a melting point of 140 to 142 °C.
The result for `O=C(Nc1ccc(N2CCCC2)nc1)c1cc2ccc(C(F)(F)F)nc2n1Cc1cccc(F)c1` reads 204 to 205 °C; that for `Cc1cc(OCc2ccccc2)cc(=O)o1`, 90 to 91 °C.
The result for `Cc1ccc(S(=O)(=O)NCCc2ccc(C(=O)CN3CCN(c4ccncc4)CC3)cc2)cc1` reads 133 to 135 °C.
In turn, `COCC(=O)Nc1nc(NC(=O)COC)nc(NC2CC2)n1` returned a melting point of 175 to 180 °C.
In turn, `COc1ccc(C2=NN(CCCCN3C(=O)c4ccccc4C3=O)C(=O)[C@H]3CC=CC[C@@H]23)cc1OC` (relative stereo) registered a melting point of 139 to 140 °C.
For `CC(=O)N1C(C)(C)CC(O)CC1(C)C` the value was 102 to 104 °C; for `CCOC(=O)n1c(=O)[nH]c2cc(OC)ccc21`, 180 to 183 °C.
The result for `C[C@H](NC(=O)OC(C)(C)C)C(=O)ON1C(=O)CCC1=O` reads 164 °C; that for `Cc1cscc1-c1cccc2c1nnn2-c1ccnc(NC2CCN(S(C)(=O)=O)CC2)n1`, 244 to 245 °C; that for `COc1ccc2cccc(C#N)c2c1`, 62 to 66 °C.
The result for `O=c1cc(C(F)(F)F)n(-c2c([N+](=O)[O-])cc([N+](=O)[O-])cc2C(F)(F)F)c(=O)[nH]1` reads 219 to 220 °C; that for `O=C(NC(Cc1ccccc1[N+](=O)[O-])c1ccccc1)C1CCCCC1` (centres undefined), 210 to 212 °C; that for `CCCCOc1ccc(NC(=O)Nc2ccc(S(N)(=O)=O)cc2)cc1`, 236 to 239 °C.
In turn, `Fc1ccccc1Cn1cnc2c(Nn3ccc4ccccc43)ncnc21` displayed a melting point of 236 to 238 °C.
`CCCN(CCC)S(=O)(=O)c1cc(-c2csc(=Nc3cc(Cl)c(OC)cc3OC)n2C)ccc1Cl` had a melting point of 173 to 175 °C.
For `Nc1c(F)c(-c2ccc(Cl)cc2)nc(C=O)c1Cl` the value was 166 to 169 °C.
The result for `CC(C)(C)OC(=O)N1CCN(c2cc(Cl)ccc2N)CC1` reads 125 to 127 °C; that for `COCCN(CCOC)c1nc(C)[nH]c2c(-c3ccc(Cl)cc3Cl)nc(C)c1-2`, 74 to 75 °C.
`CCCc1oc(-c2ccccc2)nc1COc1ccc(COc2ccccc2CC(=O)O)cc1` had a melting point of 129 to 130 °C.
In turn, `Oc1ccc(OCc2ccccc2)c2c1OCCO2` returned a melting point of 131 °C.
The result for `Nc1c(F)cc(Cl)c2c1CCCO2` reads 47 to 50 °C; that for `CC(=O)Nc1ccc(F)c(-c2cccnc2)c1F`, 154 to 155 °C; that for `CC(=O)NC(CC(=O)c1cc(Cl)ccc1N)C(=O)NC(CO)c1ccccc1` (centres undefined), 212 to 215 °C.
Consider `CCOC(=O)c1c(CCCCn2ccnc2)nc2cc(OC)c(OC)cc2c1-c1ccc(OC)c(OC)c1`, for which the melting point was 119 to 120 °C.
`COc1cc(C(=O)O)c(-c2c(C(=O)O)ccc3c2OCO3)cc1OC` gave a melting point of 207 to 210 °C.
For `c1ccc2c(c1)CSc1ccccc1C2n1ccnc1` (centres undefined) the value was 162 to 164 °C; for `N#CNC(=Nc1ccncc1)NCCSc1ccccc1`, 161 to 163 °C; for `CCCCCCCCCCCCCCCCCC(=O)NN(C(=O)CCCCCCCCCCCCCCCCC)C(=O)CCC(=O)NN`, 248 to 252 °C.
As to `C=CC1CCCC(=O)N1Cc1ccccc1Cl` (centres undefined), the melting point is 37 to 39 °C.
The result for `COC(=O)c1cc(-c2ccc(Cl)cc2)[nH]c1Cl` reads 228 to 232 °C.
For `CC(C)=Cc1sc(C#N)c2c1C(=O)CC(C)(C)C2` the value was 115 to 117 °C; for `CN(C)CC1CCc2cc(NC(=O)c3ccc(-c4ccc(CO)cc4)cc3)ccc2C1` (centres undefined), 138 to 139 °C.
As for `Cn1ncnc1COc1nn2c(-c3cccc(F)c3)nncc2c1-c1ccccc1F`, the melting point lay in the range of 169 to 170 °C.
The result for `COc1cc2ncnc(N3CCN(C(=S)NCc4ccc(Br)cc4)CC3)c2cc1OC` reads 217 to 218 °C; that for `COc1ccc(N(CCCC(=O)O)C(=O)CCCN(C(=O)c2ccc(Cl)cc2)c2c(C)cccc2C)cc1`, 119 to 121 °C.
For `CCOc1cc2c(cc1OCC)C(CC)C(C)=NN=C2c1ccc(OC)c(OC)c1` (centres undefined) the value was 91 to 93 °C; for `CC(C)C(C)(N)C(N)=S` (centres undefined), 98 to 100 °C.
For `CC(C)c1ccc(-c2nnc(-c3ccc(C(=O)O)cc3)s2)cc1` the value was over 300 °C; for `Cc1nc2n(c1CCN(C)C)CCCC2OCc1ccccc1` (centres undefined), 68 to 70 °C.
On to `O=C(Nc1ccc(O)cc1)C1CCCCC12OCCO2` (centres undefined), for which the melting point fell in the range of 173 to 174 °C.
